Laboratory results: patent US20250034127A1, “AUTOPHAGY INDUCING COMPOUNDS AND USES THEREOF, IN PARTICULAR FOR DISEASES OF THE CNS” (Samsara Therapeutics Inc., priority 2021, published 2025)

Experiments:
SH-SY5Y cells = assay: Acidic vesicle formation in SH-SY5Y cells (LysoTracker Deep Red); format: cell-based, human; conditions: 24 hours, relative to DMSO-treated control
Description: This is evidence for significant stimulation of autophagy by this compound under these conditions. SH-SY5Y cells are a human-derived neuroblastoma cell line widely used in in vitro models of neurological disorders (Ross R A, Spengler B A, Biedler J L. Coordinate morphological and biochemical interconversion of human neuroblastoma cells. J Natl Cancer Inst. 1983 October; 71 (4): 741-7. PMID: 6137586).
A brief description of the procedure employed is outlined here: • Day 1: Cells were seeded at 15K cells/well in the middle 60 wells of 6×96 well Cellvis imaging plates • Day 2: Media was replaced with 90 μl of DMEM/F12 (+10% FBS/1% P/S) containing NucBlue Live and the cells were treated with 10 μl of compound (10× concentrated) in triplicate for 24 hours. • Day3: Treatment was removed and cells were incubated for 30 minutes with LysoTracker™ Deep Red dye. Cells were washed twice with media and immediately imaged on EVOS M7000 at ×20 (6 images per well, 30 minutes imaging time/plate). Images were analysed using Celleste Image analysis software.

[1] = system: Human osteosarcoma U2OS cells; assay: Assay to measure lysosome and autolysosome (acidic vesicle) formation in U2OS cells; format: cell-based; conditions: for activation at 0.8 µM: Homo sapiens, concentration of 0.8 μM, read-out: Activity (percentage increase in acidic vesicle formation over the DMSO-treated control); for acidic vesicle formation relative to a DMSO-treated control: concentration of 10 μM, 24 hours
Description: Lysosomes play a fundamental role in the autophagic pathway by fusing with autophagosomes and creating ‘autolysosomes’ in order to digest their contents. Stimulation of lysosome and autolysosome formation by a compound is indicative of a stimulation of autophagy. The ability of compounds to stimulate lysosome and autolysosome formation, and thus autophagy, in live cells was assessed via fluorescent microscopy using various fluorescent stains for labelling and tracking acidic organelles (including lysosomes and autolysosomes) such as: LysoView™ 650 (70059 and 70059-T, Biotium), Lyso View™633 (70058 and 70058-T, Biotium) and LysoTracker™ Deep Red (L12492, ThermoFisher Scientific). The cellular phenotype was quantitatively assessed for the induction of acidic vesicle formation and compared to a non-treated control, thus providing a measure of the ability of the compound under investigation to stimulate autophagy.
Representative procedure using LysoView™ 633 dye or LysoTracker™ Deep Red dye: Human osteosarcoma U2OS cells (40,000 cells/well) were seeded in a 24 well glass bottom plate (Sensoplate, Greiner Bio-One) and were incubated overnight in a humidified atmosphere at 37° C. and 5% CO2. Cells were grown in DMEM (Gibco) supplemented with 10% Fetal Bovine Serum (FBS) and 100 units/ml penicillin and 100 μg/ml streptomycin (Invitrogen). After the attachment period, cells were treated with different compounds of interest (at various concentrations in DMSO) or DMSO (non-treated control) in cell culture medium and were incubated for 24 hours. Compound-containing medium was removed and cells were incubated with pre-warmed cell culture medium containing 1× Lyso View™ 633 (70058 and 70058-T, Biotium) or 50 nM LysoTracker™ Deep Red (L12492, ThermoFisher Scientific) for 45 minutes at 37° C. Finally, cell nuclei were stained for 10 minutes using Hoechst 33342 (1 μg/mL) and then the medium was replaced with fresh medium. The 24 well plate was then fitted into a heated stage on the microscope and cells maintained at 37° C. Images were captured using appropriate filter set for Cy5 and DAPI detection with the EVOS M7000 Microscope (ThermoFisher Scientific). The cellular phenotype was visually assessed for the induction of acidic vesicle formation relative to the non-treated control; multiple images were acquired and analysed using ImageJ or Cell Profiler.

[2] = system: primary culture of dopaminergic Tyrosine hydroxylase (TH)-positive neurons; assay: Cellular model of Parkinson's disease (MPTP/MPP+ injury); format: cell-based, rat
Excerpt: This model (run by Neuro-Sys SAS, France) is based on a primary culture of dopaminergic Tyrosine hydroxylase (TH)-positive neurons injured with the dopaminergic neurons-specific toxin (DA-toxin) 1-methyl-4-phenyl-1,2,3,6 tetrahydropyridine (MPTP, a prodrug of MPP^+) (Dauer and Przedborski, 2003). Any substances reducing DA-toxin neurotoxicity may be useful as a new therapeutic agent for the treatment or prevention of PD.
Primary culture of mesencephalic neurons: Rat dopaminergic neurons were cultured as described by Visanji et al., 2008 and Callizot et al., 2019. Briefly, pregnant female rat (Wistar) of 15 days of gestation were killed using a deep anesthesia with CO2 chamber and a cervical dislocation. The midbrains obtained from 15-day-old rat embryos (Janvier, France) were dissected under a microscope. The embryonic midbrains will be removed and placed in ice-cold medium of Leibovitz (L15) containing 2% of Penicillin-Streptomycin (PS) and 1% of bovine serum albumin (BSA). The ventral portion of the mesencephalic flexure, a region of the developing brain rich in dopaminergic neurons, was used for the cell preparations.
The midbrains were dissociated by trypsinisation for 20 min at 37° C. (solution at a final concentration of 0.05% trypsin and 0.02% EDTA). The reaction was stopped by the addition of Dulbecco's modified Eagle's medium (DMEM) containing DNAase I grade II (0.5 mg/mL) and 10% of foetal calf serum (FCS). Cells were then mechanically dissociated by 3 passages through a 10 ml pipette. Cells were then centrifuged at 180×g for 10 min at +4° C. on a layer of BSA (3.5%) in L15 medium. The supernatant was discarded, and the cell pellets re-suspended in a defined culture medium consisting of Neurobasal supplemented with B27 (2%), L-glutamine (2 mM) and 2% of PS solution and 10 ng/mL of Brain-derived neurotrophic factor (BDNF) and 1 ng/ml of Glial-Derived Neurotrophic Factor (GDNF). Viable cells were counted in a Neubauer cytometer using the trypan blue exclusion test. The cells were seeded at a density of 40,000 cells/well in 96 well-plates (pre-coated with poly-L-lysine) and maintained in a humidified incubator at 37° C. in 5% CO2/95% air atmosphere. Half of the medium was changed every 2 days with fresh medium. The wells of first and last lines and columns […] (to avoid any edge effect) and were be filled with sterile water.
• i) Pre-incubation. On day 6 of culture, the test compounds were dissolved in PBS or DMSO and incubated for 1 hour before the MPTP exposure. • ii) Injury. One hour after the application of test compound, MPTP was added to a final concentration of 4 μM, diluted in control medium still in presence of compounds/inhibitors for 48 h. Test compounds were tested on one culture in 96-well plate (n=6 culture wells per condition).
Immunostaining: TH and α-Synuclein. 48 Hours after intoxication, the cell culture supernatant was removed, and the cells were fixed by a solution of 4% paraformaldehyde in PBS, pH=7.3 for 20 min at room temperature. The cells were washed twice in PBS, and then permeabilized. Non-specific sites were blocked with a solution of PBS containing 0.1% of saponin and 1% FCS for 15 min at room temperature. The cultures were incubated with: (a) monoclonal anti-Tyrosine Hydroxylase (TH) antibody produced in mouse at dilution of 1/10000 in PBS containing 1% FCS, 0.1% saponin, for 2 hours at room temperature, and (b) polyclonal anti-alpha synuclein (α-synuclein) antibody produced in rabbit at dilution of 1/200 in PBS containing 1% FCS, 0.1% saponin, for 2 h at room temperature.
Automatic computer analysis. For each condition, 20 pictures (representing the whole well area) were automatically taken using ImageXpress® (Molecular Devices) at 10× magnification (20 pictures, for TH and α-synuclein into TH neurons) using the same acquisition parameters. From images, analyses was directly and automatically performed by MetaXpress® (Molecular Devices). […]

Row | Structure (SMILES) | Fold change in acidic vesicle formation at compound concentration of 0.8 μM (SH-SY5Y cells) [fold] | Fold change in acidic vesicle formation at compound concentration of 10 μM (SH-SY5Y cells) [fold] | activation at 0.8 µM [1] [%] | also measured
1 | C[C@H]1CN(C(=O)c2csc(-c3cnn(-c4ccccc4)n3)n2)CCN1 [Compound 238, (3S)-3-methyl-1-[2-(2-phenyl-2H-1,2,3-triazol-4-yl)-1,3-thiazole-4-carbonyl]piperazine] | 2.1 | 2.9 | – | –
2 | CCN1CCC(N(C)C(=O)c2cc(-c3cnn(-c4ccccc4)c3)c[nH]2)CC1 [Compound 256, N-(1-ethylpiperidin-4-yl)-N-methyl-4-(1-phenyl-1H-pyrazol-4-yl)-1H-pyrrole-2-carboxamide] | 1.8 | 2.7 | 30 to 50 | –
3 | CC(C)(C)N1CCC(NC(=O)c2csc(-c3cnn(-c4ccccc4)c3)n2)CC1 [Compound 248, N-(1-tert-butylpiperidin-4-yl)-2-(1-phenyl-1H-pyrazol-4-yl)-1,3-thiazole-4-carboxamide] | 2.2 | 1.9 | – | –
4 | C[C@H]1CN(C(=O)c2cc(-c3cnn(-c4ccccc4)c3)c[nH]2)CCN1 [Compound 3, (3S)-3-methyl-1-[4-(1-phenyl-1H-pyrazol-4-yl)-1H-pyrrole-2-carbonyl]piperazine] | 1.6 | 3.5 | – | –
5 | O=C(O)C1CCCN1C(=O)c1csc(-c2cnn(-c3ccccc3)c2)n1 (stereo not drawn) [Compound 144, 1-[2-(1-phenyl-1H-pyrazol-4-yl)-1,3-thiazole-4-carbonyl]pyrrolidine-2-carboxylic acid] | – | – | – | effects in the in vitro model of PD based on MPP+ injury [2]: positive effects; increase in the number of dopaminergic TH positive neurons ([2]; 100 nM, compared to MPTP injury alone): 25%; decrease in α-syn area per dopaminergic TH positive neuron ([2]; 1 μM, 500 nM and 100 nM, compared to MPP+ injury alone): > 15%
6 | CCN1CCC(NC(=O)c2cc(-c3cnn(-c4ccccc4)c3)c[nH]2)CC1 [Compound 257, N-(1-ethylpiperidin-4-yl)-4-(1-phenyl-1H-pyrazol-4-yl)-1H-pyrrole-2-carboxamide] | 1.9 | 2.6 | 50 to 100 | –
7 | CCN1CCC(N(C)C(=O)c2csc(-c3cnn(-c4ccccn4)c3)n2)CC1 [Compound 221, N-(1-ethylpiperidin-4-yl)-N-methyl-2-[1-(pyridin-2-yl)-1H-pyrazol-4-yl]-1,3-thiazole-4-carboxamide] | – | – | 10 to 30 | –
8 | CCN1CCC(N(C)C(=O)c2cc(-c3nnc(-c4ccccc4)s3)cs2)CC1 [Compound 258, N-(1-ethylpiperidin-4-yl)-N-methyl-4-(5-phenyl-1,3,4-thiadiazol-2-yl)thiophene-2-carboxamide] | – | – | 10 to 30 | acidic vesicle formation relative to a DMSO-treated control [1]: only a slight increase
9 | CCN1CCC(NC(=O)c2cc(-c3nnc(-c4ccccc4)s3)cs2)CC1 [Compound 259, N-(1-ethylpiperidin-4-yl)-4-(5-phenyl-1,3,4-thiadiazol-2-yl)thiophene-2-carboxamide] | 2.3 | 3.6 | 10 to 30 | acidic vesicle formation relative to a DMSO-treated control [1]: only a slight increase
10 | C[C@H]1CC(N(C)C(=O)c2csc(-c3cnn(-c4ccccc4)c3)n2)CCN1 (stereo partly drawn) [Compound 241, N-methyl-N-[(2S)-2-methylpiperidin-4-yl]-2-(1-phenyl-1H-pyrazol-4-yl)-1,3-thiazole-4-carboxamide] | – | – | – | acidic vesicle formation relative to a DMSO-treated control [1]: only a slight increase
11 | CCN1CCC(N(C)C(=O)c2csc(-c3cnn(-c4ccccc4C(F)(F)F)c3)n2)CC1 [Compound 217, N-(1-ethylpiperidin-4-yl)-N-methyl-2-{1-[2-(trifluoromethyl)phenyl]-1H-pyrazol-4-yl}-1,3-thiazole-4-carboxamide] | – | – | 10 to 30 | –
12 | CCN1CCC(N(C(=O)c2csc(-c3cnn(-c4ccccc4)c3)n2)C(C)C)CC1 [Compound 218, N-(1-ethylpiperidin-4-yl)-2-(1-phenyl-1H-pyrazol-4-yl)-N-(propan-2-yl)-1,3-thiazole-4-carboxamide] | 1.6 | 4.8 | 30 to 50 | –
13 | CC(=O)N1CCN(C(=O)c2csc(-c3cnn(-c4ccccc4)c3)n2)CC1 [Compound 198, 1-{4-[2-(1-phenyl-1H-pyrazol-4-yl)-1,3-thiazole-4-carbonyl]piperazin-1-yl}ethan-1-one] | – | – | 10 to 30 | –
14 | CN(C(=O)c1csc(-c2cnn(-c3ccccc3)c2)n1)C1CCN(C(C)(C)C)CC1 [Compound 239, N-(1-tert-butylpiperidin-4-yl)-N-methyl-2-(1-phenyl-1H-pyrazol-4-yl)-1,3-thiazole-4-carboxamide] | – | – | 10 to 30 | –
15 | C[C@H]1CN(C(=O)c2cc(-c3cnn(-c4ccccc4)c3)c[nH]2)CCN1 [Compound 255, (3S)-3-methyl-1-[4-(1-phenyl-1H-pyrazol-4-yl)-1H-pyrrole-2-carbonyl]piperazine] | – | – | 50 to 100 | –
